Patent US9951372B2, “Compounds and methods for assaying redox state of metabolically active cells and methods for measuring NAD(P)/NAD(P)H” (PROMEGA CORPORATION, priority 2011, dated 2018)
Where two headings read alike, the source gives them in different places.

Key:
[1] = tested on: HEK293 cells; test: Measuring metabolically active cells with quinone fluorescein derivatives; format: cell-based; settings: HEK293 cell dilutions; 60 minutes; 480ex/530em
Method: i. Two-fold serial dilutions of HEK293 cells were prepared in full DMEM media, and 100 μl per well were transferred into wells of 96-well plates. Compounds PBI 4440 and 4412 were diluted in full DMEM media to make 20 μM and 10 μM stocks, respectively. 100 μl of the prepared compound stocks were added to the cells, and the cells were incubated for 60 minutes in a 37° C., 5% CO2 incubator. Following incubation, the cells were removed from incubator, and fluorescence measured with Tecan Infinite 500 at 480ex/Em530em wavelength.

[2] = target: T1, rat diaphorase (Rattus norvegicus, UniProt P05982); format: biochemical; settings: for Fluorescence time course, Rat: 10 uM NADH
T1 construct: purchased Sigma
T1 sequence (P05982 2-274 limits assumed): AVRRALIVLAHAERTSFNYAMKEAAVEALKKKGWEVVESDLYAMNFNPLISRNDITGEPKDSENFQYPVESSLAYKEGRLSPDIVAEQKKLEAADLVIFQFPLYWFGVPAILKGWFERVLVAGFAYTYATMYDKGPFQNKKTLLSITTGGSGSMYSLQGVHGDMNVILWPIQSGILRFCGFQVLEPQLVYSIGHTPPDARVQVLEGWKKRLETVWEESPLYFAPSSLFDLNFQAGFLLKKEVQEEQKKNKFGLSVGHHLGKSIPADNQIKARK

[3] = tested on: HeLa cells; test: Fluorescent imaging of live cells; format: cell-based; settings: 10 μM substrate
Method: HeLa cells were plated at 40,000 cell/well into wells of an 8-well chambered coverslip and incubated at 37° C.+5% CO2. The media (DMEM) was replaced with warm complete media (with 10% FBS) containing 10 μM PBI-4412, 4413, 4440 or 4441. Cells were then transferred to a confocal microscope for imaging using 10% λ488 nm laser power (4412, 4413, and 4441) or 5% laser power (4440). All images (FIGS. 6a-d) are at 30× magnification.

[4] = tested on: Clostridium diaphorase; test: Fluorescent NADH detection assay, Clostridium diaphorase; format: biochemical; settings: for FLUs: 1 u/ml Clostridium diaphorase; for Fluorescence time course, Clostridium: 10 uM NADH
Method: Each fluorescent substrate (PBI-4412, 4413, 4440, and 4441) was incubated at 920 μM with 0 μM or 10 μM NADH (Sigma) or a titration of NADH (Table 8) and 1 u/ml rat diaphorase (Sigma) or 1 u/ml Clostridium diaphorase (Sigma) in a volume of 100 μl in 50 mM Tris pH 7.5. Single reactions were prepared in the wells of a 96-well black plate at room temperature. Fluorescence was monitored over the course of two hours at excitation and emission wavelengths of 485 and 527, respectively, using a fluorescence plate reader. […] Table 7 and FIGS. 24a-b show the reaction time course with each substrate with 10 uM NADH. Table 8 and FIG. 25 show the NADH titration at 60 minutes with PBI-4440 and 4412 with rat diaphorase.

[5] = tested on: Jurkat cells; test: Measuring metabolically active cells with quinone coelenterazine derivatives; format: cell-based, human; settings: Jurkat cell dilutions; 30 minute incubation; Oplophorus luciferase detection reagent
Method: Two-fold serial dilutions of Jurkat cells were prepared in PBS, and 50 μl per well transferred to wells in 96-well plates. Compound PBI 4600 and 4601 were diluted in PBS to make 50 μM and 100 μM stocks, respectively. 10 μl of prepared compound stocks were added to the cells, and the cells were placed into 37° C., 5% CO2 incubator. Following a 30 minute incubation, the cells were removed from incubator, cooled at room temperature for 10 minutes, and 50 μl of Oplophorus luciferase detection reagent (Promega Corporation) added directly to the wells. The samples were mixed, incubated at room temperature for 20 minutes, and luminescence measured.

[6] = 0 μM NADH, 60 min, 1 u/ml rat diaphorase
[7] = 10 μM NADH, 60 min, 1 u/ml rat diaphorase, substrate 920 μM
[8] = NADH 0 μM, 60 minutes, rat diaphorase
[9] = NADH 1.25 μM, 60 minutes, rat diaphorase
[10] = NADH 2.5 μM, 60 minutes, rat diaphorase
[11] = NADH 5 μM, 60 minutes, rat diaphorase
[12] = NADH 10 μM, 60 minutes, rat diaphorase
[13] = NADH 20 μM, 60 minutes, rat diaphorase
[14] = NADH 40 μM, 60 minutes, rat diaphorase
[15] = NADH 80 μM, 60 minutes, rat diaphorase
[16] = 10 μM NADH, 60 min, substrate 920 μM

CC1=CC(=O)C(C)=C(C(C)(C)CC(=O)N(C)CCN(C)C(=O)Oc2ccc3c(c2)Oc2cc(O)ccc2C32OC(=O)c3ccccc32)C1=O (centres unmarked) [PBI 4412, Mono-quinone trimethyllock diamine fluorescein]
relationship of fluorescence to cell number [1]: linear correlation between cell number and fluorescence | FLUs [2, 6]: 3772 FLUs | FLUs [2, 7]: 170571 FLUs | Fluorescence time course, Rat ([2]; 2 min): 10099 FLUs | Fluorescence time course, Rat ([2]; 4 min): 24171 FLUs | Fluorescence time course, Rat ([2]; 5 min): 33247 FLUs | Fluorescence time course, Rat ([2]; 10 min): 62502 FLUs | Fluorescence time course, Rat ([2]; 20 min): 106834 FLUs | Fluorescence time course, Rat ([2]; 30 min): 133278 FLUs | Fluorescence time course, Rat ([2]; 40 min): 151941 FLUs | Fluorescence time course, Rat ([2]; 50 min): 162636 FLUs | Fluorescence time course, Rat ([2]; 60 min): 170571 FLUs | Fluorescence time course, Rat ([2]; 70 min): 175380 FLUs | Fluorescence time course, Rat ([2]; 80 min): 177516 FLUs | Fluorescence time course, Rat ([2]; 90 min): 178423 FLUs | Fluorescence time course, Rat ([2]; 100 min): 180027 FLUs | Fluorescence time course, Rat ([2]; 110 min): 182051 FLUs | Fluorescence time course, Rat ([2]; 120 min): 181077 FLUs | FLUs [2, 8]: 3772 FLUs | FLUs [2, 9]: 26228 FLUs | FLUs [2, 10]: 51005 FLUs | FLUs [2, 11]: 97995 FLUs | FLUs [2, 12]: 170571 FLUs | FLUs [2, 13]: 183286 FLUs | FLUs [2, 14]: 185532 FLUs | FLUs [2, 15]: 183372 FLUs | reduction of substrate in live cells (confocal images) [3]: only reduced once inside cells | FLUs ([4]; 0 μM NADH, 60 min): 3940 FLUs | FLUs [4, 16]: 125352 FLUs | Fluorescence time course, Clostridium ([4]; 2 min): 9933 FLUs | Fluorescence time course, Clostridium ([4]; 4 min): 24883 FLUs | Fluorescence time course, Clostridium ([4]; 5 min): 33881 FLUs | Fluorescence time course, Clostridium ([4]; 10 min): 60458 FLUs | Fluorescence time course, Clostridium ([4]; 20 min): 95260 FLUs | Fluorescence time course, Clostridium ([4]; 30 min): 112465 FLUs | Fluorescence time course, Clostridium ([4]; 40 min): 120688 FLUs | Fluorescence time course, Clostridium ([4]; 50 min): 123934 FLUs | Fluorescence time course, Clostridium ([4]; 60 min): 125352 FLUs | Fluorescence time course, Clostridium ([4]; 70 min): 126364 FLUs | Fluorescence time course, Clostridium ([4]; 80 min): 125242 FLUs | Fluorescence time course, Clostridium ([4]; 90 min): 124786 FLUs | Fluorescence time course, Clostridium ([4]; 100 min): 124434 FLUs | Fluorescence time course, Clostridium ([4]; 110 min): 124460 FLUs | Fluorescence time course, Clostridium ([4]; 120 min): 124182 FLUs

CC1=C(C)C(=O)C(C(C)(C)CC(=O)N(C)CCN(C)C(=O)Oc2ccc3c(c2)Oc2cc(O)ccc2C32OC(=O)c3ccccc32)=C(C)C1=O (centres unmarked) [PBI 4440, Mono-quinone trimethyllock diamine fluorescein]
relationship of fluorescence to cell number [1]: linear correlation between cell number and fluorescence | FLUs [2, 6]: 2922 FLUs | FLUs [2, 7]: 180909 FLUs | Fluorescence time course, Rat ([2]; 2 min): 6473 FLUs | Fluorescence time course, Rat ([2]; 4 min): 18626 FLUs | Fluorescence time course, Rat ([2]; 5 min): 28997 FLUs | Fluorescence time course, Rat ([2]; 10 min): 73216 FLUs | Fluorescence time course, Rat ([2]; 20 min): 133999 FLUs | Fluorescence time course, Rat ([2]; 30 min): 161355 FLUs | Fluorescence time course, Rat ([2]; 40 min): 173345 FLUs | Fluorescence time course, Rat ([2]; 50 min): 178374 FLUs | Fluorescence time course, Rat ([2]; 60 min): 180909 FLUs | Fluorescence time course, Rat ([2]; 70 min): 182618 FLUs | Fluorescence time course, Rat ([2]; 80 min): 182416 FLUs | Fluorescence time course, Rat ([2]; 90 min): 182263 FLUs | Fluorescence time course, Rat ([2]; 100 min): 181996 FLUs | Fluorescence time course, Rat ([2]; 110 min): 182253 FLUs | Fluorescence time course, Rat ([2]; 120 min): 182132 FLUs | FLUs [2, 8]: 2922 FLUs | FLUs [2, 9]: 24788 FLUs | FLUs [2, 10]: 50387 FLUs | FLUs [2, 11]: 99331 FLUs | FLUs [2, 12]: 180909 FLUs | FLUs [2, 13]: 309004 FLUs | FLUs [2, 14]: 304293 FLUs | FLUs [2, 15]: 305861 FLUs | reduction of substrate in live cells (confocal images) [3]: only reduced once inside cells | FLUs ([4]; 0 μM NADH, 60 min): 3050 FLUs | FLUs [4, 16]: 43362 FLUs | Fluorescence time course, Clostridium ([4]; 2 min): 3611 FLUs | Fluorescence time course, Clostridium ([4]; 4 min): 7197 FLUs | Fluorescence time course, Clostridium ([4]; 5 min): 10142 FLUs | Fluorescence time course, Clostridium ([4]; 10 min): 20624 FLUs | Fluorescence time course, Clostridium ([4]; 20 min): 33781 FLUs | Fluorescence time course, Clostridium ([4]; 30 min): 39807 FLUs | Fluorescence time course, Clostridium ([4]; 40 min): 42268 FLUs | Fluorescence time course, Clostridium ([4]; 50 min): 43000 FLUs | Fluorescence time course, Clostridium ([4]; 60 min): 43362 FLUs | Fluorescence time course, Clostridium ([4]; 70 min): 43750 FLUs | Fluorescence time course, Clostridium ([4]; 80 min): 43425 FLUs | Fluorescence time course, Clostridium ([4]; 90 min): 43468 FLUs | Fluorescence time course, Clostridium ([4]; 100 min): 43296 FLUs | Fluorescence time course, Clostridium ([4]; 110 min): 43005 FLUs | Fluorescence time course, Clostridium ([4]; 120 min): 43150 FLUs

CC1=C(C)C(=O)C(C(C)(C)CC(=O)N(C)CCN(C)C(=O)Oc2ccc3c(c2)Oc2cc(OC(=O)N(C)CCN(C)C(=O)CC(C)(C)C4=C(C)C(=O)C(C)=C(C)C4=O)ccc2C32OC(=O)c3ccccc32)=C(C)C1=O [PBI 4441, Bis-quinone trimethyllock diamine fluorescein]
FLUs [2, 6]: 120 FLUs | FLUs [2, 7]: 7387 FLUs | Fluorescence time course, Rat ([2]; 2 min): 302 FLUs | Fluorescence time course, Rat ([2]; 4 min): 608 FLUs | Fluorescence time course, Rat ([2]; 5 min): 827 FLUs | Fluorescence time course, Rat ([2]; 10 min): 1961 FLUs | Fluorescence time course, Rat ([2]; 20 min): 3454 FLUs | Fluorescence time course, Rat ([2]; 30 min): 4460 FLUs | Fluorescence time course, Rat ([2]; 40 min): 5442 FLUs | Fluorescence time course, Rat ([2]; 50 min): 6457 FLUs | Fluorescence time course, Rat ([2]; 60 min): 7387 FLUs | Fluorescence time course, Rat ([2]; 70 min): 8891 FLUs | Fluorescence time course, Rat ([2]; 80 min): 9545 FLUs | Fluorescence time course, Rat ([2]; 90 min): 9915 FLUs | Fluorescence time course, Rat ([2]; 100 min): 10496 FLUs | Fluorescence time course, Rat ([2]; 110 min): 10736 FLUs | Fluorescence time course, Rat ([2]; 120 min): 11149 FLUs | reduction of substrate in live cells (confocal images) [3]: only reduced once inside cells | FLUs ([4]; 0 μM NADH, 60 min): 314 FLUs | FLUs [4, 16]: 2570 FLUs | Fluorescence time course, Clostridium ([4]; 2 min): 354 FLUs | Fluorescence time course, Clostridium ([4]; 4 min): 481 FLUs | Fluorescence time course, Clostridium ([4]; 5 min): 576 FLUs | Fluorescence time course, Clostridium ([4]; 10 min): 1152 FLUs | Fluorescence time course, Clostridium ([4]; 20 min): 1974 FLUs | Fluorescence time course, Clostridium ([4]; 30 min): 2334 FLUs | Fluorescence time course, Clostridium ([4]; 40 min): 2515 FLUs | Fluorescence time course, Clostridium ([4]; 50 min): 2514 FLUs | Fluorescence time course, Clostridium ([4]; 60 min): 2570 FLUs | Fluorescence time course, Clostridium ([4]; 70 min): 2584 FLUs | Fluorescence time course, Clostridium ([4]; 80 min): 2561 FLUs | Fluorescence time course, Clostridium ([4]; 90 min): 2539 FLUs | Fluorescence time course, Clostridium ([4]; 100 min): 2555 FLUs | Fluorescence time course, Clostridium ([4]; 110 min): 2515 FLUs | Fluorescence time course, Clostridium ([4]; 120 min): 2570 FLUs

CC1=C(C)C(=O)C(C(C)(C)CC(=O)N(C)CCN(C)C(=O)Oc2c(Cc3ccco3)nc3c(Cc4ccccc4)nc(-c4ccccc4)cn23)=C(C)C1=O [PBI 4600]
relationship of luminescence to cell number [5]: linear correlation between cell number and luminescence

CC1=C(C)C(=O)C(C(C)(C)CC(=O)N(C)CCN(C)C(=O)Oc2c(Cc3ccccc3)nc3c(Cc4ccccc4)nc(-c4ccccc4)cn23)=C(C)C1=O [PBI 4601]
relationship of luminescence to cell number [5]: linear correlation between cell number and luminescence
